From US10300064B2, “Organic compounds” (INTRA-CELLULAR THERAPIES, INC., priority 2014, dated 2019) come the findings set out here.

Data set [1] has as its target T1, r-hPDE2A (Homo sapiens, UniProt O00408).
T1 construct: host or cells: HEK293 cells, transient transfection; soluble cytosolic fraction used
Briefly: Measurement of PDE2 inhibition in vitro (IMAP fluorescence polarization, FL-cAMP substrate). The data set is classed as biochemical. The following applies: 1 μM cGMP. The procedure: Measurement of PDE2 Inhibition In Vitro
r-hPDE2A (Accession No. NM_002599, Homo sapiens phosphodiesterase 2A, cGMP-stimulated, transcript variant 1) A mammalian expression cloning vector with recombinant cDNA copy of the gene is purchased from Origene. Protein is expressed via transient transfection of HEK293 cells. The cells are harvested at 48 hours after transfection, washed once with TBS buffer (50 mM Tris-HCl, pH 7.5, 150 mM NaCl), then lysed by sonication in cold homogenization buffer (50 mM Tris-HCl, pH 7.5, 5 mM MgCl2, lx protease inhibitor cocktail). The homogenate is centrifuged for […] at 15,000 g at 4° C. to obtain the soluble cytosolic fraction. The protein concentration of the cytosol is determined using BCA Protein Assay Kit (Pierce) with bovine serum albumin as a standard.
PDE2A is assayed with FL-cAMP as substrate. An enzyme titration is first performed to determine the working concentration of PDE. The concentration of the enzyme giving activity of 100 ΔmP in the absence of inhibitor is deemed an appropriate working concentration for PDE.
PDE enzyme is diluted in a standard reaction buffer (10 mM Tris-HCl pH 7.2, 10 mM MgCl2, 0.1% BSA, 0.05% NaN3) according to the titration curve. For PDE2 assay the reaction buffer is supplemented with 1 μM cGMP to fully activate the enzyme. 99 μl of diluted enzyme solution is added into each well in a flat bottom 96-well polystyrene plate and then 1 μl of test compound dissolved in 100% DMSO is added. The compounds are mixed and pre-incubated with the enzyme for 10 min at room temperature.
The FL-cNMP conversion reaction is initiated by addition of substrate (45 nM final). Enzyme and inhibitor mix (16 μl) and substrate solution (4 μl of 0.225 μM) are combined in a 384-well microtiter plate. The reaction is incubated in the dark at room temperature for 15 min. The reaction is halted by addition of 60 μl of binding reagent (1:400 dilution of IMAP beads in binding buffer supplemented with 1:1800 dilution of antifoam) to each well of the 384-well plate. The plate is incubated at room temperature for 1 hour to allow IMAP binding to proceed to completion, and then placed in an Envision multimode microplate reader (PerkinElmer, Shelton, Conn.) to measure the fluorescence polarization (Δmp).
A decrease in cAMP concentration, measured as decreased Amp, is indicative of inhibition of PDE activity. […] IC50 values are estimated using nonlinear regression software, fitting a four-parameter one-site dose-response model (XLFit; IDBS, Cambridge, Mass.). […]
The total fluorescence intensity of each sample well is measured to calculate the average and standard deviation. If the total fluorescence intensity of any sample well is not within the range of Average±3SD, the mp value of that particular well is discarded. […]

A short description of data set [2]: Pharmacokinetic study in mice (plasma and brain availability). The data set is classed as in vivo. The following applies: single oral dose 10 mg/kg PO, 0.25-4h, FIG. 1. The procedure:
FIG. 1 illustrats the plasma and brain levels in mice dosed with 10 mg/kg P.O. of the compound of Example 1 over time.
Mice are given a single oral dose of the compound to be tested (10 mg/kg, PO) and plasma and brain availability are measured (0.25-4h) using HPLC and LC-MS using methods analogous to those described in Zhao et al., J. Chromatogr. B. Analyt. Technol. Biomed. Life Sci. (2005) 819(1):73-80 and Appels, N. M., et al., Rapid Commun. Mass Spec. 2005. 19(15): p. 2187-92.

Data set [3] has as its system Wistar rats. Briefly: Object recognition task, memory performance of Wistar rats. The data set is classed as in vivo, rat. Particulars: male Wistar rats, oral, 2 h before learning. The procedure:
The Effects of Treatment with PDE2 Inhibitors on Memory Performance of Wistar Rats in the Object Recognition Task
The memory-enhancing effects of the compound of Example 1 are tested in an animal model of cognition, the object recognition task. See, Ennaceur, A., Delacour, J., 1988. A new one-trial test for neurobiological studies of memory in rats. 1: Behavioral data. Behav. Brain Res. 31, 47-59. Rats remember which object they have explored in a previous trial when they are tested one hour later. However, when a 24 h inter-trial interval is used, they are not able to remember which object was presented to them in the first trial. It is tested whether the compound of Example 1 would attenuate this time-induced object memory deficit, when given 2 h before the first trial. The compounds are given to 2-3-months-old male Wistar rats.
The compound of Example 1 is injected orally (2 ml/kg) 2 h before learning, at doses of 0, 0.3, 1, 3 and 10 mg/kg.

The test system of data set [4] is PDE1. Briefly: Selectivity for PDE2 over PDE1. It is filed as biochemical. The procedure:
(§1) Using the IMAP procedure described or similarly described above, we screened a proprietary PDE-focused compound library to identify novel compounds with nanomolar PDE2 inhibitory activities. […] The compounds are moreover selective for PDE2; the compound of Example 4 is tested and shown to be selective for PDE2 over PDE1, PDE3, PDE4D, PDE5, PDE6, PDE7B, PDE8A, PDE9A, PDE10A and PDE11A by greater than 20-fold.

In data set [5] the test system is PDE3. Put plainly: Selectivity for PDE2 over PDE3. It is filed as biochemical. The procedure:
as §1

Data set [6] deals with PDE4D (Homo sapiens, UniProt Q08499). Put plainly: Selectivity for PDE2 over PDE4D. The data set is classed as biochemical. How it is done: as §1
For data set [7], the target named is PDE5 (Homo sapiens, UniProt O76074). Briefly: Selectivity for PDE2 over PDE5. The data set is classed as biochemical. How it is done: as §1
Data set [8] concerns PDE6. Put plainly: Selectivity for PDE2 over PDE6. The data set is classed as biochemical. How it is done:
as §1

Data set [9] has as its target PDE7B (Homo sapiens, UniProt Q9NP56). Put plainly: Selectivity for PDE2 over PDE7B. It is filed as biochemical. The procedure:
as §1

For data set [10], the target named is PDE8A (Homo sapiens, UniProt O60658). Put plainly: Selectivity for PDE2 over PDE8A. It is filed as biochemical. The procedure:
as §1

Data set [11] concerns the target PDE9A (Homo sapiens, UniProt O76083). Put plainly: Selectivity for PDE2 over PDE9A. The data set is classed as biochemical. How it is done: as §1
Data set [12] has as its target PDE10A (Homo sapiens, UniProt Q9Y233). Put plainly: Selectivity for PDE2 over PDE10A. It is filed as biochemical. How it is done:
as §1

For data set [13], the target named is PDE11A (Homo sapiens, UniProt Q9HCR9). Put plainly: Selectivity for PDE2 over PDE11A. The data set is classed as biochemical. The procedure: as §1

pIC50: −log10 of the molar value.

T1 sequence (O00408 whole entry): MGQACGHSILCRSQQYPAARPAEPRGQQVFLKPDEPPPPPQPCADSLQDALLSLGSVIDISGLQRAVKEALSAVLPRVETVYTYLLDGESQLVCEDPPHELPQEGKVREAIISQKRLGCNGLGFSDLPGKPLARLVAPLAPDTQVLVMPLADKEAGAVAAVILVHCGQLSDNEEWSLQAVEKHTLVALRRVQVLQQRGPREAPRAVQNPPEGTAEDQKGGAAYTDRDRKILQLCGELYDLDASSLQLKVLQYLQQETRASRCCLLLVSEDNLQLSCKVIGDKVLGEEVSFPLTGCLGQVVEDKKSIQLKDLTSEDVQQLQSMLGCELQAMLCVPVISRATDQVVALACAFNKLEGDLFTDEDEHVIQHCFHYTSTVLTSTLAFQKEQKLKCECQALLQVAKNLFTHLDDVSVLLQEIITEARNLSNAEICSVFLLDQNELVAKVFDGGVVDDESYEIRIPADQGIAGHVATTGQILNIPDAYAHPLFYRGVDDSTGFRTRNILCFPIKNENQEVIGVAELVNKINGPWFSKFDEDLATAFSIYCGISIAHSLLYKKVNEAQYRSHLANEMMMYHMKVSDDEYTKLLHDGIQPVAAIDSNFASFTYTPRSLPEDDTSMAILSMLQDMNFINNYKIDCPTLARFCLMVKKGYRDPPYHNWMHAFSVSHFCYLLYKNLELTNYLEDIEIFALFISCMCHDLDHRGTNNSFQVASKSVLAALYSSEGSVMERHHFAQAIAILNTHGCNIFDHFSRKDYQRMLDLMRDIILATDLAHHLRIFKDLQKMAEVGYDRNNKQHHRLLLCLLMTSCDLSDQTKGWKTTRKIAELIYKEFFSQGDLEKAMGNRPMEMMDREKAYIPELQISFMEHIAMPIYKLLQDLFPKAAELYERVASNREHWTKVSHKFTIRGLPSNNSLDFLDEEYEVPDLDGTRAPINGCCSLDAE
Sequence of PDE11A (Q9HCR9 whole entry, species assumed): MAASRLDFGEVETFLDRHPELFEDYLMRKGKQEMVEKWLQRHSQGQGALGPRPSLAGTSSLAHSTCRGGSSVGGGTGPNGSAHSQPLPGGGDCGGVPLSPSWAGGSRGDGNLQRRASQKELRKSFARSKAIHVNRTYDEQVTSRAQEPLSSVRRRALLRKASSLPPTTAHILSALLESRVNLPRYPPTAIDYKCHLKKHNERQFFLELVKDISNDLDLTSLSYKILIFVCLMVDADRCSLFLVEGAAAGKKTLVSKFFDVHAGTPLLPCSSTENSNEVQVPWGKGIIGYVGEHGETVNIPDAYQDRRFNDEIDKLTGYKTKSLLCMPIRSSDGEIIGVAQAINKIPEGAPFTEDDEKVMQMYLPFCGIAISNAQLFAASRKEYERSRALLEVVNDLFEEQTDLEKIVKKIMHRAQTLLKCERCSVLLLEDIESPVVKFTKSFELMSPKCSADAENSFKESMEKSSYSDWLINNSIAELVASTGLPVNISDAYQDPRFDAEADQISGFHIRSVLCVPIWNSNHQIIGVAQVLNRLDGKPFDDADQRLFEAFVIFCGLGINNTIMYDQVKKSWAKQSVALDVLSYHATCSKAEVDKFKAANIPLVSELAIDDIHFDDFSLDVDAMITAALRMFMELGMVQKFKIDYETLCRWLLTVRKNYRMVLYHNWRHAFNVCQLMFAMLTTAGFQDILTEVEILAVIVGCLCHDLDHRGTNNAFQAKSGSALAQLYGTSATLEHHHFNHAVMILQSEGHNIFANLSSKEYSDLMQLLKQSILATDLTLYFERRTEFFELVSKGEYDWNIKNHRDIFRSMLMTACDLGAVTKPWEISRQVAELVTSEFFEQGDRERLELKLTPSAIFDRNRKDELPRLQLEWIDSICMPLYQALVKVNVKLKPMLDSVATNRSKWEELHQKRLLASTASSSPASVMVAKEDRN
Sequence of PDE10A (Q9Y233 whole entry, species assumed): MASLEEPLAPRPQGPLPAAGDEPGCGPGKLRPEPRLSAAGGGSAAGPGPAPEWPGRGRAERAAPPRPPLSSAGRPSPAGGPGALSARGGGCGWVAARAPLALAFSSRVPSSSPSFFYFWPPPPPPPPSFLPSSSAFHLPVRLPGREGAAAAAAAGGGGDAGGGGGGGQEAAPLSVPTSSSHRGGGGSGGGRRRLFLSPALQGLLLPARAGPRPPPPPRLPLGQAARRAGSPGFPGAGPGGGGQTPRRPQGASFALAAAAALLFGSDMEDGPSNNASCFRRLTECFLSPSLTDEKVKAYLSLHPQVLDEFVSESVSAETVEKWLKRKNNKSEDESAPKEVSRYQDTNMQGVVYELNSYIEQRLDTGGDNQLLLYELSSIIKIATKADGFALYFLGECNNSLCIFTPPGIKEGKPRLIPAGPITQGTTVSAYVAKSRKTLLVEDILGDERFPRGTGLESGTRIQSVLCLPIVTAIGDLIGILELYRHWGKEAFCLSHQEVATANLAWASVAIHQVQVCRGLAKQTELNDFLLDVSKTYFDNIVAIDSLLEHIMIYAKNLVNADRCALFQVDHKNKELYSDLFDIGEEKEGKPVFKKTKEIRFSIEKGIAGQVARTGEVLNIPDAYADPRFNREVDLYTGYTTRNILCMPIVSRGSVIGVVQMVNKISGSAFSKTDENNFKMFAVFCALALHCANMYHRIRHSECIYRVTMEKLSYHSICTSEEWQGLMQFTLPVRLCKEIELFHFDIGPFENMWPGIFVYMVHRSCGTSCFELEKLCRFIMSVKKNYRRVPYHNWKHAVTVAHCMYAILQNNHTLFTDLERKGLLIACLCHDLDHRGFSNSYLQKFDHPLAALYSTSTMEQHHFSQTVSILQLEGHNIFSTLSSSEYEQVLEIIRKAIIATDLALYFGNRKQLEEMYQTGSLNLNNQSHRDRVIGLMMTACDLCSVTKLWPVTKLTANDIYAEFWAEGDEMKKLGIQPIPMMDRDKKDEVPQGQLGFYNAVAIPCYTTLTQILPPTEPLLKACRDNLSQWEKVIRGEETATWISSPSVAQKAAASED
Sequence of PDE9A (O76083 whole entry, species assumed): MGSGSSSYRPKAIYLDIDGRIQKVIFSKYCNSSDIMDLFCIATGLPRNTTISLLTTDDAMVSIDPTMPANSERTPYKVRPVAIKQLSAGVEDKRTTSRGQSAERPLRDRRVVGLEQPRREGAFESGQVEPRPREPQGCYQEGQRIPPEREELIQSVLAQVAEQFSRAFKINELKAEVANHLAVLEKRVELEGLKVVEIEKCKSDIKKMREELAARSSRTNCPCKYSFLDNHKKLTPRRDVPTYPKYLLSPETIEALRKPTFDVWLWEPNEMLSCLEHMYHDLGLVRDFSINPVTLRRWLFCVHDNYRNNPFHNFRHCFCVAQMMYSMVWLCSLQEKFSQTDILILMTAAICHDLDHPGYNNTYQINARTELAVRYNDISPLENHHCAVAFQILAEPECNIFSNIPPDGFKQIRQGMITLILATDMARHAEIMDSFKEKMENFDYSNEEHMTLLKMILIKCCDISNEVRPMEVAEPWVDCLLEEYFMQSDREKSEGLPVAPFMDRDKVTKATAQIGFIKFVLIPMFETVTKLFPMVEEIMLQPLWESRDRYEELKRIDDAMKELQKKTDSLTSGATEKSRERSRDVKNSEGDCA
Sequence of PDE7B (Q9NP56 whole entry, species assumed): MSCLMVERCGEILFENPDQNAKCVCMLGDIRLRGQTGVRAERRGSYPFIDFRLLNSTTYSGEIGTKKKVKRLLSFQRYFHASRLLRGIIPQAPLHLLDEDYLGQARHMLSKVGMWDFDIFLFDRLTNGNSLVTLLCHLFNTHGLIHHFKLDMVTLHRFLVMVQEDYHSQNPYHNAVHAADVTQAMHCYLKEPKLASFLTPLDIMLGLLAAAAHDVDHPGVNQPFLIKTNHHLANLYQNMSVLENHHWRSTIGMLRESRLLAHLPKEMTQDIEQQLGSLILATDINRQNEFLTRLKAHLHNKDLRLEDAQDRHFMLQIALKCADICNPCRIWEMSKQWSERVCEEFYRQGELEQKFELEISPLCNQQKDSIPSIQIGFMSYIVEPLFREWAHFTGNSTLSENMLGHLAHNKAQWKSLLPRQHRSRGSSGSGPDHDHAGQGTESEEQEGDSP
Sequence of PDE8A (O60658 whole entry, species assumed): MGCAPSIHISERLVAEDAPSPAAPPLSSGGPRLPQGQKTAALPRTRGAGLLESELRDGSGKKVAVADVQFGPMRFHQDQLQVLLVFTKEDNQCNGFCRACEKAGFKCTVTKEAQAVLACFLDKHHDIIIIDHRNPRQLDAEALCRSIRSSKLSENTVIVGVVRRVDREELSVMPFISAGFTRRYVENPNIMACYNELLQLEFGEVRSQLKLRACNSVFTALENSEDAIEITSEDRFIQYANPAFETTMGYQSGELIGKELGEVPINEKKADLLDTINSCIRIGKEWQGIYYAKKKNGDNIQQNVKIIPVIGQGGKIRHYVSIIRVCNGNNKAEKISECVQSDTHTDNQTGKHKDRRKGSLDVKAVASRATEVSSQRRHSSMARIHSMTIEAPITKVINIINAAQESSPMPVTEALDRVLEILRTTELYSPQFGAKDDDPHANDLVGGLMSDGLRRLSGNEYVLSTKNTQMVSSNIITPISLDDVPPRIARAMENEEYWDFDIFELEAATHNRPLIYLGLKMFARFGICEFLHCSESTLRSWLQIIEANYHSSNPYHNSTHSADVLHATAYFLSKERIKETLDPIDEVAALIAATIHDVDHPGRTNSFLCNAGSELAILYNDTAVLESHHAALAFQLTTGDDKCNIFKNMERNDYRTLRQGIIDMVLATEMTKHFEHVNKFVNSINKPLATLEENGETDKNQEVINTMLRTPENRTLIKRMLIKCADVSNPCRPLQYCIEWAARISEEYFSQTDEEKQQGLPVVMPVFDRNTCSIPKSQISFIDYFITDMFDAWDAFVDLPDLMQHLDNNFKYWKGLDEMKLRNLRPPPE

`Cc1nn(-c2cnn(C)c2-c2ccc(C(F)(F)F)cc2)c2c(N3CCC3)ncnc12` [Example 1, 7-(Azetidin-1-yl)-3-methyl-1-(1-methyl-5-(4-(trifluoromethyl)phenyl)-1H-pyrazol-4-yl)-1H-pyrazolo[4,3-d]pyrimidine]: in data set [1], the pIC50 is 7.64. In data set [2], the “brain access (plasma and brain availability)” value is reported as “good brain access”. Further, the “memory improvement (object memory, 24 h inter-trial interval)” value in data set [3] (0.3 mg/kg) and in data set [3] (3.0 mg/kg) was “intermediate memory improvement” throughout. Moreover, in data set [3] (1.0 mg/kg), the “time-dependent forgetting (object memory, 24 h inter-trial interval)” value is “completely prevent the time-dependent forgetting”.

`Cc1nn(-c2cnn(C)c2-c2ccc(C3CC3)cc2)c2c(N3CCC3)ncnc12` [Example 3, 7-(Azetidin-1-yl)-1-(5-(4-cyclopropylphenyl)-1-methyl-1H-pyrazol-4-yl)-3-methyl-1H-pyrazolo[4,3-d]pyrimidine]: in [1], the pIC50 is 8.02.

`COc1ccc(-c2c(-n3nc(C)c4ncnc(N5CCC5)c43)cnn2C)c(C)c1` [Example 2, 7-(Azetidin-1-yl)-1-(5-(4-methoxy-2-methylphenyl)-1-methyl-1H-pyrazol-4-yl)-3-methyl-1H-pyrazolo[4,3-d]pyrimidine] gave a pIC50 in data set [1] of 7.04.

`CCc1ccc(-c2c(-n3nc(C)c4ncnc(N5CCC5)c43)cnn2C)cc1` [Example 4, 7-(Azetidin-1-yl)-1-(5-(4-ethylphenyl)-1-methyl-1H-pyrazol-4-yl)-3-methyl-1H-pyrazolo[4,3-d]pyrimidine] gave a pIC50 in data set [1] of 7.73. In addition, the “selectivity for PDE2 over PDE1” value in [4] is reported as “greater than 20 fold”. For the same compound, in data set [5], the “selectivity for PDE2 over PDE3” value is listed as “greater than 20 fold”. For the same compound, the “selectivity for PDE2 over PDE4D” value in data set [6] is listed as “greater than 20 fold”. Besides, the “selectivity for PDE2 over PDE5” value in data set [7] is “greater than 20 fold”. Further, the “selectivity for PDE2 over PDE6” value in data set [8] is “greater than 20 fold”. The “selectivity for PDE2 over PDE7B” value in data set [9] is “greater than 20 fold”. Also, in data set [10], the “selectivity for PDE2 over PDE8A” value was “greater than 20 fold”. In addition, the “selectivity for PDE2 over PDE9A” value in data set [11] is “greater than 20 fold”. Also, the “selectivity for PDE2 over PDE10A” value in data set [12] is given as “greater than 20 fold”. Besides, in data set [13], the “selectivity for PDE2 over PDE11A” value is reported as “greater than 20 fold”.
